Measured values taken from patent EP0462621A2, “Use of particular compounds for manufacture of pharmaceutical formulations for treatment against various parasites, mycoplasmas, other indications and other infections” (Prendergast, Patrick Thomas, priority 1990, dated 1991).

What was measured:
T. cruzi = T. cruzi epimastigote (EPI) in-vitro screen; assay type: cell-based
Protocol: In-vitro chemotherapy screens have for many years used models involving three stages of the T. cruzi life cycle: • (1) Epimastigote. Dividing populations are easily cultivated in a range of defined and semi-defined media, but are equivalent to a vector stage of the life cycle. • (2) Trypomastigote. These are isolated from a rodent host and can be maintained as a non-dividing population for 24-48 h in media. • (3) Amastigote. Dividing populations can be cultivated in muscle cells, fibroblasts and macrophages, following infection with trypomastigotes. After the initial infection, there is normally a period of 4-5 days during which the amastigotes divide before transforming, via the epimastigote stage, back to trypomastigotes which escape from the cell. Drug activity is measured during this 4-5 day period. A dividing host cell population, low infection rate, and the presence of trypomastigotes in the overlay can complicate the interpretation of results.

[1] = tested on: monocyte/macrophage cultures; test: Appearance and differentiation of monocyte/macrophage cultures in Experiment la(a); assay type: cell-based
Protocol: Fresh macrophage cultures were obtained by incubation of mononuclear cells obtained from a leukopak directly in the wells of a microtiter plate having 6 wells per row. After removal of non-adherent cells, each row of the adherent macrophages was infected with 10-fold serial dilutions of HIV-I, with the use of polybrene to enhance uptake of the virus. After one to two hours, the virus inoculum was removed and replaced with fresh normal growth medium. The fresh medium for each row contained a particular concentration of AZT, dideoxy cytidine (ddC), or compound la, as indicated by the left-hand column of Table la(a). The first row of wells acted as a control, and to it was added fresh medium containing none of the three drugs. Medium levels were maintained for two to four weeks to allow replication of the virus to take place, with at least one complete fluid change to remove residual virus inoculum. The contents of each well were then tested for the level of HIV p24 antigen present using a commercially available antigen capture kit employing a radio-immunoassay which can detect as little as 10'^9gm of p24 present in a sample. The above procedure was done in duplicate runs.

[2] = Stability of IPA on storage; assay type: physicochemical
Protocol: Compounds of Formula la (IPA) have especially low toxicity for pediatrics, and acceptable toxicity of adult humans, although it is somewhat higher than for pediatrics. IPA can be stored dry almost indefinitely if protected from light and stored at -75 °C. IPA is photosensitive and deteriorates at room temperature, whether in a solid form or in aqueous or ethanolic solutions. It was found in experiments that the breakdown rate of IPA is approximately 3% per month in a dark container at room temperature.
Two lots of IPA (Sample 1 and Sample 2) were tested.
Infrared spectra of IPA, taken from time to time, as described below, were used to monitor changes which may have occurred in the IPA over time. The compound was generally stored at -10° C. FT-IR data of fresh IPA are listed in the first column of Table la(m). A second FT-IR spectrum of the same compound, after storage at -10 C for 110 days, was taken and the data are listed in the second column of Table la(m). The melting point of the compound was taken at the same time. The original melting point was 128-130 C, and the second melting point, 110 days later, was 129-132 C.
The observed melting points compare favorably with literature melting points ranging from 126° C to 138° C.

Monocytes = test: Experiment la(f): monocyte spontaneous migration (agarose droplet); assay type: cell-based, human; settings: for Total Area (mm^2) Migration: Table Ia(f)(ii)
Protocol: Monocytes from each human donor were incubated for 30 minutes with three different dose levels of compound la in triplicate. These cells were added to agarose and droplets of agarose containing cells were added to small chambers. A chemotaxis agent was added to induce enhanced migration of the mononuclear cells. The detailed assay procedures are described below.
Cell migration patterns of triplicates within 30% of each other were generally accepted.
• 1. Add 6 ml Phosphate Buffered Saline (PBS) 2X to 7 ml of Percoll. • 2. Add mixture to 15 ml polycarbonate centrifuge tubes (Sorvall ^*03243, 18 x 100 mm, pt. ^*00770 50/box, w/caps). ' • 3. Centrifuge tubes at 21,000 x g for 45 minutes (Sorvall, RC2-B centrifuge w/SS-34 rotor, 34 fixed angle, -15,000 rpm w/Drake off @ 4 C). Percoll gradient is good for two weeks. • 4. Mononuclear cells are separated from whole blood by differential centrifugation using a synthetic separation medium. • 5. Cells are washed 2X with Basal Salt Solution (BSS). • 6. Resuspend cells in BSS + 10% BCS, then add mixture to 50 ml centrifuge tubes containing 30-40 ml of Bovine Calf Serum (BCS) and centrifuge at 400 x g for 10 minutes. • 7. Resuspend cells in BSS without BCS. • 8. Determine viable cell number. • 9. Adjust concentration of cells to […]. • 10. Carefully layer 2 ml of cells on top of Percoll gradient. Centrifuge tubes at 100 x g for 20 minutes at 4°C with brake off. • 11. Monocyte layer is harvested with a pasteur pipet and aliquoted into a 50 ml centrifuge tube. Dead cells are in the top band. Monocytes are about 5 ml above middle gradient. Lymphocytes are about 5 ml below middle gradient. […] Wash cells 3X in BSS without BCS. • 13. Resuspend cells in desired media. • 14. Perform esterase stain on monocyte cell suspension to determine ratio of monocytes. Ratio ranges from 50 - 80%.
• 1. A 0.4% solution of Agarose (Seakem HE) and distilled H20 is prepared, aliquoted into 1 dram vials, autoclaved and stored at 4° C until used. • 2. A suspension of […] cells in Media 199 2X containing glutamine 2mM, gentamicin 50 µg/ml and bovine calf serum-heat inactivated (56° C, […]) 20%, is combined with an equal amount of 0.4% Agarose. • 3. A 5 µl droplet of cell/agarose mixture is added to the centre of a Sterilin plate (Surrey, England). • 4. A 2 µl droplet of agarose/media mixture is added 3-5mm to one side of the cell/agarose droplet and a 2 µl droplet of agarose/chemo-attractant (N-formyl-L-methionyl-L-Leucyl-L-Phenylalanine 10^-4 M(F-Met-Leu-Phe)) is added 3-5mm to the other side of the cell/agarose droplet. • 5. The droplets are allowed to solidify, after which 0.5 ml of RPMI-1640 containing glutamine 2mM, gentamicin 50, µg/ml and bovine calf serum 10% is added to the well. A cover slip is then placed over the well. • 6. The plate is incubated at 37° C, 5% C02/air humified for approximately 18 hours. • 7. The plate is removed from the incubator and the distance the cells have moved towards the media control and the chemoattractant droplets is traced and measured.

PBL = test: Growth of PBL following cocultivation of patient's lymphocytes with PHA-PBL; assay type: cell-based, human; settings: 30 u.M or lower; up to 10 days in culture
L major/L mexicana = test: Leishmania mouse/hamster models, in-vivo; settings: Lm. Also: key: - no/poor activity,; + fair/moderate activity,; ++ good/excellent activity.
Description: (§1) In-vitro and in-vivo models were used to test activities of a selection of many compounds. Those activities are summarized in Tables 1-3, showing variation between systems and species. Activities measured in the MP mo and HM mo models have shown the best correlation with results obtained in hamster and mouse models.

L donovani = test: Leishmania mouse/hamster models, in-vivo; settings: Ld. Also: key: - no/poor activity,; + fair/moderate activity,; ++ good/excellent activity.
Description: as §1

For `CC(C)=CCNc1ncnc2c1ncn2[C@@H]1O[C@H](CO)[C@@H](O)[C@H]1O` [IPA, N^6-(Δ^2-isopentenyl) adenosine], the “activity, EPI” value (T. cruzi; T. cruzi strain MR) was “++(Y,MR, Sonya)”, the “activity, EPI” value (T. cruzi; T. cruzi strain Sonya) was “++(Y,MR, Sonya)” and the “activity, EPI” value (T. cruzi; T. cruzi strain Y) was “++(Y,MR, Sonya)”. The “appearance of monocyte/macrophage cultures” value ([1]; all concentrations of IPA used (3-1000 μM)) was “appeared to be healthy”, the “differentiation of small immature monocytes into large adherent macrophage cells” value ([1]; in the presence of IPA) was “did not take place” and the “change in the compound on storage” value ([2]; Sample 1, tests over four months) was “no change in the compound”. The breakdown rate ([2]; dark container at room temperature) was “approximately 3 % per month”, the “change in the FT-IR spectrum on storage” value ([2]; storage at -10 C for 110 days) was “little change in the FT-IR spectrum” and the “reduction in spontaneous migration” value (Monocytes; 30 µM) was 15%. The spontaneous migration (Monocytes; 0.1 - 0.3 µM) was “Enhanced spontaneous migration”, the “reduction in the ability of the monocytes to spontaneously migrate” value (Monocytes; 100 - 1000 µM) was 22-37% and the “Total Area (mm^2) Migration” value (Monocytes; IPA 5 µM, media 9085) was 7952 mm^2. The “Total Area (mm^2) Migration” value (Monocytes; IPA 10 µM, media 9085) was 6846 mm^2, the “Total Area (mm^2) Migration” value (Monocytes; IPA 15 µM, media 9085) was 6300 mm^2 and the “Total Area (mm^2) Migration” value (Monocytes; IPA 20 µM, media 8732) was 6804 mm^2. The “Total Area (mm^2) Migration” value (Monocytes; IPA 25 µM, media 8732) was 6435 mm^2, the “Total Area (mm^2) Migration” value (Monocytes; IPA 30 µM, media 8732) was 5795 mm^2 and the “cytotoxic effect on the growth of viable PHA stimulated PBL” value (PBL) was “did not have any significant cytotoxic effect”. The “Activity, mouse/ hamster models” value (L major/L mexicana) was “-” and the “Activity, mouse/ hamster models” value (L donovani) was “+”.
